For this assay, the system named is sexual behaviour of normal male rats. Briefly: Sexual behaviour of normal (sexually vigorous) male rats. The settings on record: Compound (1) 15 mg/kg or Fluoxetine 20 mg/kg i.p. 1 h before test. It counts as in vivo, rat. How it is done: The potentially stimulatory effect of Compound (1) on male sexual behaviour has been tested on sexually vigorous rats. Sprague Dawley male rats (Charles River, UK) were kept, 4 rats per cage, in a reversed lighting regime (12:12 hours, lights off at 5.00 h), with free access to food and water. The rats were pre-selected by being presented with a receptive female at 4 days intervals, i.e. every third day (having 2 clear days between presentations) until completing 6-7 […] of baseline determination. The animals showing consistently vigorous behaviour (ejaculatory latencies <300s) were chosen for further experiments (n—24). Animals were randomised into three groups. All animals received all three treatments following a latin-square design. Treatments were administered once a week, with a baseline test in between treatments (4 days intervals between baseline and test day). Treatments were Compound (1) (15 mg/kg, dissolved in 50% 2-hydroxypropyl-β-cyclodextrin in saline), vehicle, or Fluoxetine (20 mg/kg dissolved in 100% DMSO). All treatments were administered i.p. in a 1 ml/kg volume, 1 h before tests.
For all the sexual behaviour tests, the males were placed in an observation arena (50-60 cm diameter), starting 5 hours into the dark cycle and observed under red illumination. Three to 4 minutes after placing the male in the arena, a receptive female (ovariectomised, bearing a 7 mm Silastic implant of oestradiol benzoate) was introduced to the arena and the following parameters noted: Mount Latency: time (in seconds) taken between introduction of female and first mount. A maximum time of 15 minutes (900 seconds) was allowed, and the test terminated if no mounts were recorded within that time (FIG. 11), Intromission Latency: time (in seconds) taken between introduction of female and first intromission (FIG. 12), Number of Mounts: to reach ejaculation. When ejaculation was not reached, the number of mounts was not analyzed, Number of Intromissions: to reach ejaculation. When ejaculation was not reached, the number of intromissions was not analyzed (FIG. 13 is number of mounts+intromissions), Ejaculation Latency: time (in seconds) taken from first intromission to ejaculation. A maximum time of 30 minutes (1800 seconds) was given, and the test terminated if ejaculation was not achieved in that time (FIG. 14), and Refractory Period: time (in seconds) taken from ejaculation to the first mount of the next series of sexual activity. In those animals reaching ejaculation the test was terminated at the end of the refractory period, as indicated by the first mount of the next sexual cycle (FIG. 15).
A one-way ANOVA followed by Dunnett's t test was used to compare treated vs vehicle groups each day of testing, for all the sexual behaviour parameters. (*P<0.05, **P<0.01; n=15-16).

Structures are written as SMILES.

`COc1ccc(C2(CNC(=O)[C@](C)(Cc3c[nH]c4ccccc34)NC(=O)Nc3ccc([N+](=O)[O-])cc3)CCCCC2)nc1` [Compound (1), (S) 3-(1H-Indol-3-yl)-N-[1-(5-methoxy-pyridin-2-yl)-cyclohexyl-methyl]-2-methyl-2-[3-(4-nitro-phenyl)-ureido]-propionamide]: under “vs vehicle (FIG. 11)”, the “Mount Latency” value is given as “no effect on any of the parameters studied”. For the same compound, the “Intromission Latency” value (vs vehicle (FIG. 12)) was “no effect on any of the parameters studied”. Moreover, the “number of mounts and intromissions required to achieve ejaculation” value (vs vehicle (FIG. 13)) is recorded as “no effect on any of the parameters studied”. The “Ejaculation Latency” value (vs vehicle (FIG. 14)) is “no effect on any of the parameters studied”. Moreover, the “Refractory Period” value (vs vehicle (FIG. 15)) was “no effect on any of the parameters studied”.

The values above are taken from patent US20020169101A1, “Treatment of sexual dysfunction” (priority 1999, published 2002).
